The supplement of paper PMC10307832

How the values were obtained:
Test in all cases: relative viability (nuclei count vs DMSO), 5 days (fraction); higher = more cells survive
[1] = compound: Cc1ccc(C(=O)N(CCCN)[C@@H](c2nc3cc(Cl)ccc3c(=O)n2Cc2ccccc2)C(C)C)cc1 [Ispinesib] + C[C@]1(O)C[C@@H](c2nc(-c3ccc4ccc(-c5ccccc5)nc4c3)c3c(N)nccn32)C1 [Linsitinib] (partner 1 µM)
In short: (§1)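 One day after seeding in 1536-well plates, lung cancer cell lines were dosed by pin tool. Dosing was either single-drug or a fixed anchor-drug dose plus five library-drug doses (not always all listed) in √10 steps. After 5 days, nuclei were stained in one fix-and-stain step and counted on 4× images, and relative viability is the nuclei count of treated wells over that of vehicle wells, given as the median of duplicate plates.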

[2] = compound: C[C@]1(O)C[C@@H](c2nc(-c3ccc4ccc(-c5ccccc5)nc4c3)c3c(N)nccn32)C1 [Linsitinib] + COc1cc2c(Oc3ccc(NC(=O)C4(C(=O)Nc5ccc(F)cc5)CC4)cc3F)ccnc2cc1OCCCN1CCOCC1 [Foretinib] (partner 0.25 µM)
In short: as §1

[3] = compound: C[C@]1(O)C[C@@H](c2nc(-c3ccc4ccc(-c5ccccc5)nc4c3)c3c(N)nccn32)C1 [Linsitinib] + CC1(C)CCC(c2ccc(Cl)cc2)=C(CN2CCN(c3ccc(C(=O)NS(=O)(=O)c4ccc(N[C@H](CCN5CCOCC5)CSc5ccccc5)c(S(=O)(=O)C(F)(F)F)c4)cc3)CC2)C1 [Navitoclax] (partner 0.5 µM)
In short: as §1

[4] = compound: Cc1ccc(C(=O)N(CCCN)[C@@H](c2nc3cc(Cl)ccc3c(=O)n2Cc2ccccc2)C(C)C)cc1 [Ispinesib] + Nc1ncn([C@H]2C[C@H](O)[C@@H](CO)O2)c(=O)n1 [Decitabine] (partner 2 µM)
In short: as §1

LC-2-ad gave a relative viability ([1]; first compound 0.001 µM) of 0.842, a relative viability ([1]; first compound 0.003162 µM) of 0.845 and a relative viability ([1]; first compound 0.01 µM) of 0.971. The relative viability ([1]; first compound 0.03162 µM) was 0.556, the relative viability ([1]; first compound 0.1 µM) was 0.184 and the relative viability ([2]; first compound 0.01 µM) was 0.983. It also gave a relative viability ([2]; first compound 0.03162 µM) of 0.979, a relative viability ([2]; first compound 0.1 µM) of 0.858 and a relative viability ([2]; first compound 0.3162 µM) of 0.738. It also gave a relative viability ([2]; first compound 1 µM) of 0.671, a relative viability ([3]; first compound 0.01 µM) of 0.368 and a relative viability ([3]; first compound 0.03162 µM) of 0.406. It also gave a relative viability ([3]; first compound 0.1 µM) of 0.486, a relative viability ([3]; first compound 0.3162 µM) of 0.339 and a relative viability ([3]; first compound 1 µM) of 0.368. The relative viability ([4]; first compound 0.001 µM) was 0.847, the relative viability ([4]; first compound 0.003162 µM) was 0.787 and the relative viability ([4]; first compound 0.01 µM) was 0.872. For the same cell line, the relative viability ([4]; first compound 0.03162 µM) was 0.815 and the relative viability ([4]; first compound 0.1 µM) was 0.54.

NCI-H1944 was tested, and the relative viability ([1]; first compound 0.001 µM) was 1.24, the relative viability ([1]; first compound 0.003162 µM) was 1.38 and the relative viability ([1]; first compound 0.01 µM) was 1.18. For the same cell line, the relative viability ([1]; first compound 0.03162 µM) was 0.975, the relative viability ([1]; first compound 0.1 µM) was 0.979 and the relative viability ([2]; first compound 0.01 µM) was 0.921. For the same cell line, the relative viability ([2]; first compound 0.03162 µM) was 1.02, the relative viability ([2]; first compound 0.1 µM) was 0.821 and the relative viability ([2]; first compound 0.3162 µM) was 0.674. For the same cell line, the relative viability ([2]; first compound 1 µM) was 0.674, the relative viability ([3]; first compound 0.01 µM) was 1.02 and the relative viability ([3]; first compound 0.03162 µM) was 1.1. The relative viability ([3]; first compound 0.1 µM) was 1.04, the relative viability ([3]; first compound 0.3162 µM) was 0.93 and the relative viability ([3]; first compound 1 µM) was 0.917. It also gave a relative viability ([4]; first compound 0.001 µM) of 0.416, a relative viability ([4]; first compound 0.003162 µM) of 0.412 and a relative viability ([4]; first compound 0.01 µM) of 0.467. For the same cell line, the relative viability ([4]; first compound 0.03162 µM) was 0.417 and the relative viability ([4]; first compound 0.1 µM) was 0.443.

Cell Line HCC-827 has a relative viability ([1]; first compound 0.001 µM) of 0.955, a relative viability ([1]; first compound 0.003162 µM) of 1.01 and a relative viability ([1]; first compound 0.01 µM) of 1.01. For the same cell line, the relative viability ([1]; first compound 0.03162 µM) was 0.959, the relative viability ([1]; first compound 0.1 µM) was 0.892 and the relative viability ([2]; first compound 0.01 µM) was 1.07. The relative viability ([2]; first compound 0.03162 µM) was 1.1, the relative viability ([2]; first compound 0.1 µM) was 1.02 and the relative viability ([2]; first compound 1 µM) was 0.966. It also gave a relative viability ([3]; first compound 0.01 µM) of 1, a relative viability ([3]; first compound 0.03162 µM) of 1.04 and a relative viability ([3]; first compound 0.1 µM) of 1.01. The relative viability ([3]; first compound 1 µM) was 0.974, the relative viability ([4]; first compound 0.001 µM) was 0.303 and the relative viability ([4]; first compound 0.003162 µM) was 0.373. The relative viability ([4]; first compound 0.01 µM) was 0.32, the relative viability ([4]; first compound 0.03162 µM) was 0.294 and the relative viability ([4]; first compound 0.1 µM) was 0.234.

COR-L23 gave a relative viability ([1]; first compound 0.001 µM) of 1.12, a relative viability ([1]; first compound 0.003162 µM) of 0.946 and a relative viability ([1]; first compound 0.01 µM) of 1. It also gave a relative viability ([1]; first compound 0.03162 µM) of 0.161, a relative viability ([1]; first compound 0.1 µM) of 0.16 and a relative viability ([2]; first compound 0.01 µM) of 0.892. It also gave a relative viability ([2]; first compound 0.03162 µM) of 0.996, a relative viability ([2]; first compound 0.1 µM) of 0.905 and a relative viability ([2]; first compound 0.3162 µM) of 0.834. The relative viability ([2]; first compound 1 µM) was 0.861, the relative viability ([3]; first compound 0.01 µM) was 0.915 and the relative viability ([3]; first compound 0.03162 µM) was 1.01. For the same cell line, the relative viability ([3]; first compound 0.1 µM) was 1.11, the relative viability ([3]; first compound 0.3162 µM) was 0.931 and the relative viability ([3]; first compound 1 µM) was 0.897. The relative viability ([4]; first compound 0.001 µM) was 0.447, the relative viability ([4]; first compound 0.003162 µM) was 0.388 and the relative viability ([4]; first compound 0.01 µM) was 0.454. It also gave a relative viability ([4]; first compound 0.03162 µM) of 0.176 and a relative viability ([4]; first compound 0.1 µM) of 0.141.

In the case of NCI-H3122, the relative viability ([1]; first compound 0.001 µM) is reported as 1.07, the relative viability ([1]; first compound 0.003162 µM) is reported as 1.09 and the relative viability ([1]; first compound 0.01 µM) is reported as 1.07. The relative viability ([1]; first compound 0.03162 µM) was 1.13, the relative viability ([1]; first compound 0.1 µM) was 0.251 and the relative viability ([2]; first compound 0.01 µM) was 0.913. The relative viability ([2]; first compound 0.03162 µM) was 0.945, the relative viability ([2]; first compound 0.1 µM) was 0.978 and the relative viability ([2]; first compound 0.3162 µM) was 0.874. For the same cell line, the relative viability ([2]; first compound 1 µM) was 0.907, the relative viability ([3]; first compound 0.01 µM) was 1.02 and the relative viability ([3]; first compound 0.03162 µM) was 1.05. For the same cell line, the relative viability ([3]; first compound 0.1 µM) was 1.04, the relative viability ([3]; first compound 0.3162 µM) was 1.02 and the relative viability ([3]; first compound 1 µM) was 1.08. The relative viability ([4]; first compound 0.001 µM) was 0.498, the relative viability ([4]; first compound 0.003162 µM) was 0.443 and the relative viability ([4]; first compound 0.01 µM) was 0.426. It also gave a relative viability ([4]; first compound 0.03162 µM) of 0.483 and a relative viability ([4]; first compound 0.1 µM) of 0.292.

NCI-H1793 gave a relative viability ([1]; first compound 0.001 µM) of 0.866, a relative viability ([1]; first compound 0.003162 µM) of 1.02 and a relative viability ([1]; first compound 0.01 µM) of 0.961. The relative viability ([1]; first compound 0.03162 µM) was 0.707, the relative viability ([1]; first compound 0.1 µM) was 0.562 and the relative viability ([2]; first compound 0.01 µM) was 0.629. It also gave a relative viability ([2]; first compound 0.03162 µM) of 0.765, a relative viability ([2]; first compound 0.1 µM) of 0.643 and a relative viability ([2]; first compound 0.3162 µM) of 0.602. For the same cell line, the relative viability ([2]; first compound 1 µM) was 0.681, the relative viability ([3]; first compound 0.01 µM) was 0.374 and the relative viability ([3]; first compound 0.03162 µM) was 0.353. It also gave a relative viability ([3]; first compound 0.1 µM) of 0.469, a relative viability ([3]; first compound 0.3162 µM) of 0.322 and a relative viability ([3]; first compound 1 µM) of 0.425. For the same cell line, the relative viability ([4]; first compound 0.001 µM) was 0.411, the relative viability ([4]; first compound 0.003162 µM) was 0.473 and the relative viability ([4]; first compound 0.01 µM) was 0.624. For the same cell line, the relative viability ([4]; first compound 0.03162 µM) was 0.524 and the relative viability ([4]; first compound 0.1 µM) was 0.229.

In the case of BEN, the relative viability ([1]; first compound 0.001 µM) is reported as 1, the relative viability ([1]; first compound 0.003162 µM) is reported as 1.12 and the relative viability ([1]; first compound 0.01 µM) is reported as 1.06. The relative viability ([1]; first compound 0.03162 µM) was 0.682, the relative viability ([1]; first compound 0.1 µM) was 0.32 and the relative viability ([2]; first compound 0.01 µM) was 0.635. The relative viability ([2]; first compound 0.03162 µM) was 0.578, the relative viability ([2]; first compound 0.1 µM) was 0.642 and the relative viability ([2]; first compound 1 µM) was 0.753. It also gave a relative viability ([3]; first compound 0.01 µM) of 0.0565, a relative viability ([3]; first compound 0.03162 µM) of 0.0788 and a relative viability ([3]; first compound 0.1 µM) of 0.0565. It also gave a relative viability ([3]; first compound 0.3162 µM) of 0.0421, a relative viability ([3]; first compound 1 µM) of 0.0587 and a relative viability ([4]; first compound 0.001 µM) of 0.714. For the same cell line, the relative viability ([4]; first compound 0.003162 µM) was 0.737, the relative viability ([4]; first compound 0.01 µM) was 0.785 and the relative viability ([4]; first compound 0.03162 µM) was 0.421. It also gave a relative viability ([4]; first compound 0.1 µM) of 0.375.

For NCI-H647, the relative viability ([1]; first compound 0.001 µM) was 1.2, the relative viability ([1]; first compound 0.003162 µM) was 1.26 and the relative viability ([1]; first compound 0.01 µM) was 0.949. For the same cell line, the relative viability ([1]; first compound 0.03162 µM) was 0.607, the relative viability ([1]; first compound 0.1 µM) was 0.144 and the relative viability ([2]; first compound 0.01 µM) was 1.14. For the same cell line, the relative viability ([2]; first compound 0.03162 µM) was 1.23, the relative viability ([2]; first compound 0.1 µM) was 1.19 and the relative viability ([2]; first compound 1 µM) was 1.17. The relative viability ([3]; first compound 0.01 µM) was 1.24, the relative viability ([3]; first compound 0.03162 µM) was 1.12 and the relative viability ([3]; first compound 0.1 µM) was 1.18. It also gave a relative viability ([3]; first compound 1 µM) of 1.05, a relative viability ([4]; first compound 0.001 µM) of 0.49 and a relative viability ([4]; first compound 0.003162 µM) of 0.409. It also gave a relative viability ([4]; first compound 0.01 µM) of 0.326, a relative viability ([4]; first compound 0.03162 µM) of 0.179 and a relative viability ([4]; first compound 0.1 µM) of 0.157.
